{"source": "patent US20100267561A1", "about": "“HERBICIDAL PYRIDAZINONE DERIVATIVES” (priority 2007, published 2010)", "format_in_all_cases": "in vivo", "key": {"[1]": {"tested_on": "giant foxtail (Setaria faberi)", "assay": "Test A pre-/postemergence plant response", "procedure,_shortened": "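Scores reflect visual plant injury relative to untreated controls on a 0–100 scale, recorded approximately 10 days after simultaneous preemergence soil spraying and postemergence spraying of one- to two-leaf seedlings grown in loam–sand.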"}, "[2]": {"tested_on": "common (oilseed) sunflower (Helianthus annuus)", "assay": "Test B pre-/postemergence plant response", "conditions": "Preemergence", "procedure,_shortened": "(§1)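 Seeds were sown and sprayed preemergence, while plants at 2 to 18 cm (1- to 4-leaf stage) got postemergence sprays. Compounds were formulated in a non-phytotoxic solvent mixture with surfactant. After 13 to 15 days in a greenhouse, injury was rated visually against untreated controls, 0 (no effect) to 100 (complete control).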"}, "[3]": {"tested_on": "wheat (Triticum aestivum)", "assay": "Test B pre-/postemergence plant response", "conditions": "for Wheat plant response rating: 8 g ai/ha", "procedure,_shortened": "as §1"}, "[4]": {"tested_on": "goosegrass (Eleusine indica)", "assay": "Test B pre-/postemergence plant response", "conditions": "for Goosegrass plant response rating: 8 g ai/ha", "procedure,_shortened": "as §1"}, "soybean (Glycine max)": {"tested_on": "soybean (Glycine max)", "assay": "Test B pre-/postemergence plant response", "conditions": "for Soybean plant response rating: 8 g ai/ha", "procedure,_shortened": "as §1"}, "[5]": {"tested_on": "blackgrass (Alopecurus myosuroides)", "assay": "Test B pre-/postemergence plant response", "conditions": "for Blackgrass plant response rating: 8 g ai/ha", "procedure,_shortened": "as §1"}, "[6]": {"tested_on": "bermudagrass (Cynodon dactylon)", "assay": "Test B pre-/postemergence plant response", "conditions": "for Bermudagrass plant response rating: 8 g ai/ha", "procedure,_shortened": "as §1"}, "[7]": {"tested_on": "giant foxtail (Setaria faberii)", "assay": "Test B pre-/postemergence plant response", "conditions": "for Foxtail, Giant plant response rating: 8 g ai/ha", "procedure,_shortened": "as §1"}, "[8]": {"tested_on": "johnsongrass (Sorghum halepense)", "assay": "Test B pre-/postemergence plant response", "conditions": "for Johnsongrass plant response rating: 8 g ai/ha", "procedure,_shortened": "as §1"}, "[9]": {"tested_on": "downy bromegrass (Bromus tectorum)", "assay": "Test B pre-/postemergence plant response", "conditions": "for Bromegrass, Downy plant response rating: 8 g ai/ha", "procedure,_shortened": "as §1"}, "[10]": {"tested_on": "velvetleaf (Abutilon theophrasti)", "assay": "Test B pre-/postemergence plant response", "conditions": "for Velvetleaf plant response rating: 8 g ai/ha", "procedure,_shortened": "as §1"}, "[11]": {"tested_on": "pigweed (Amaranthus retroflexus)", "assay": "Test B pre-/postemergence plant response", "conditions": "for Pigweed plant response rating: 8 g ai/ha", "procedure,_shortened": "as §1"}, "[12]": {"conditions": "Postemergence, 16 g ai/ha, scale 0 to 100"}, "[13]": {"conditions": "Postemergence, 62 g ai/ha, scale 0 to 100, 0 no effect, 100 complete control"}, "[14]": {"conditions": "Preemergence, 16 g ai/ha, scale 0 to 100 (0 no effect, 100 complete control)"}, "[15]": {"conditions": "Preemergence, 31 g ai/ha, 0 to 100 scale, 0 no effect, 100 complete control"}, "[16]": {"conditions": "Preemergence, 62 g ai/ha, scale 0 to 100"}, "[17]": {"conditions": "Postemergence, 31 g ai/ha, scale 0 to 100, 0 no effect, 100 complete control"}}}
{"smiles": "CCc1cc(-c2ccc(Cl)cc2)nn1-c1c(OS(C)(=O)=O)cnn(C)c1=O", "note": "[Compound 39]", "values": [{"measurement": "Plant response rating, Foxtail, Giant", "setting": "[1]; Postemergence, 31 g ai/ha, 0 to 100 scale (0 no effect, 100 complete control)", "value": 90}, {"measurement": "Plant response rating, Foxtail, Giant", "setting": "[1]; Postemergence, 125 g ai/ha, 0 to 100 scale, 0 no effect, 100 complete control", "value": 100}, {"measurement": "Plant response rating, Foxtail, Giant", "setting": "[1]; Preemergence, 31 g ai/ha, 0 to 100 scale, 0 is no effect, 100 is complete control", "value": 90}, {"measurement": "Plant response rating, Foxtail, Giant", "setting": "[1]; Preemergence, 125 g ai/ha, 0 to 100 scale (0 no effect, 100 complete control)", "value": 100}, {"measurement": "Plant response rating, Sunflower", "setting": "[2]; 16 g ai/ha, scale 0 to 100 (0 no effect, 100 complete control)", "value": 0}, {"measurement": "Plant response rating, Sunflower", "setting": "[2]; 31 g ai/ha, 0 to 100 scale, 0 no effect, 100 complete control", "value": 0}, {"measurement": "Plant response rating, Sunflower", "setting": "[2]; 62 g ai/ha, scale 0 to 100", "value": 0}, {"measurement": "Sunflower plant response rating", "setting": "[2]; 8 g ai/ha, scale 0 to 100", "value": 0}, {"measurement": "Wheat plant response rating", "setting": "[3]; postemergence, 0-100 scale", "value": 20}, {"measurement": "Plant response rating, Wheat", "setting": "[3]; [12]", "value": 20}, {"measurement": "Plant response rating, Wheat", "setting": "[3]; [13]", "value": 98}, {"measurement": "Plant response rating, Wheat", "setting": "[3]; [14]", "value": 30}, {"measurement": "Plant response rating, Wheat", "setting": "[3]; [15]", "value": 70}, {"measurement": "Plant response rating, Wheat", "setting": "[3]; [16]", "value": 80}, {"measurement": "Wheat plant response rating", "setting": "[3]; Preemergence, scale 0 to 100", "value": 0}, {"measurement": "Goosegrass plant response rating", "setting": "[4]; postemergence, 0-100 scale", "value": 20}, {"measurement": "Plant response rating, Goosegrass", "setting": "[4]; [12]", "value": 65}, {"measurement": "Plant response rating, Goosegrass", "setting": "[4]; [17]", "value": 85}, {"measurement": "Plant response rating, Goosegrass", "setting": "[4]; [13]", "value": 100}, {"measurement": "Plant response rating, Goosegrass", "setting": "[4]; [14]", "value": 100}, {"measurement": "Plant response rating, Goosegrass", "setting": "[4]; [15]", "value": 100}, {"measurement": "Plant response rating, Goosegrass", "setting": "[4]; [16]", "value": 100}, {"measurement": "Goosegrass plant response rating", "setting": "[4]; Preemergence, scale 0 to 100", "value": 95}, {"measurement": "Soybean plant response rating", "setting": "soybean (Glycine max); postemergence, 0-100 scale", "value": 0}, {"measurement": "Plant response rating, Soybean", "setting": "soybean (Glycine max); [12]", "value": 0}, {"measurement": "Plant response rating, Soybean", "setting": "soybean (Glycine max); [13]", "value": 0}, {"measurement": "Plant response rating, Soybean", "setting": "soybean (Glycine max); [14]", "value": 0}, {"measurement": "Plant response rating, Soybean", "setting": "soybean (Glycine max); [15]", "value": 0}, {"measurement": "Plant response rating, Soybean", "setting": "soybean (Glycine max); [16]", "value": 0}, {"measurement": "Soybean plant response rating", "setting": "soybean (Glycine max); Preemergence, scale 0 to 100", "value": 0}, {"measurement": "Blackgrass plant response rating", "setting": "[5]; postemergence, 0-100 scale", "value": 0}, {"measurement": "Plant response rating, Blackgrass", "setting": "[5]; [12]", "value": 0}, {"measurement": "Plant response rating, Blackgrass", "setting": "[5]; [17]", "value": 95}, {"measurement": "Plant response rating, Blackgrass", "setting": "[5]; [13]", "value": 100}, {"measurement": "Plant response rating, Blackgrass", "setting": "[5]; [14]", "value": 90}, {"measurement": "Plant response rating, Blackgrass", "setting": "[5]; [15]", "value": 90}, {"measurement": "Plant response rating, Blackgrass", "setting": "[5]; [16]", "value": 90}, {"measurement": "Blackgrass plant response rating", "setting": "[5]; Preemergence, scale 0 to 100", "value": 40}, {"measurement": "Bermudagrass plant response rating", "setting": "[6]; postemergence, 0-100 scale", "value": 0}, {"measurement": "Plant response rating, Bermudagrass", "setting": "[6]; [12]", "value": 60}, {"measurement": "Plant response rating, Bermudagrass", "setting": "[6]; [17]", "value": 75}, {"measurement": "Plant response rating, Bermudagrass", "setting": "[6]; [13]", "value": 95}, {"measurement": "Bermudagrass plant response rating", "setting": "[6]; Preemergence, scale 0 to 100 (0 no effect, 100 complete control)", "value": 0}, {"measurement": "Plant response rating, Bermudagrass", "setting": "[6]; [14]", "value": 90}, {"measurement": "Plant response rating, Bermudagrass", "setting": "[6]; [15]", "value": 95}, {"measurement": "Plant response rating, Bermudagrass", "setting": "[6]; [16]", "value": 98}, {"measurement": "Foxtail, Giant plant response rating", "setting": "[7]; postemergence, 0-100 scale", "value": 80}, {"measurement": "Plant response rating, Foxtail, Giant", "setting": "[7]; [12]", "value": 98}, {"measurement": "Plant response rating, Foxtail, Giant", "setting": "[7]; [17]", "value": 100}, {"measurement": "Plant response rating, Foxtail, Giant", "setting": "[7]; [13]", "value": 100}, {"measurement": "Plant response rating, Foxtail, Giant", "setting": "[7]; [14]", "value": 100}, {"measurement": "Plant response rating, Foxtail, Giant", "setting": "[7]; [15]", "value": 100}, {"measurement": "Plant response rating, Foxtail, Giant", "setting": "[7]; [16]", "value": 100}, {"measurement": "Foxtail, Giant plant response rating", "setting": "[7]; Preemergence, scale 0 to 100", "value": 100}, {"measurement": "Johnsongrass plant response rating", "setting": "[8]; postemergence, 0-100 scale", "value": 40}, {"measurement": "Plant response rating, Johnsongrass", "setting": "[8]; [12]", "value": 55}, {"measurement": "Plant response rating, Johnsongrass", "setting": "[8]; [17]", "value": 95}, {"measurement": "Plant response rating, Johnsongrass", "setting": "[8]; [13]", "value": 95}, {"measurement": "Plant response rating, Johnsongrass", "setting": "[8]; [14]", "value": 90}, {"measurement": "Plant response rating, Johnsongrass", "setting": "[8]; [15]", "value": 90}, {"measurement": "Plant response rating, Johnsongrass", "setting": "[8]; [16]", "value": 95}, {"measurement": "Johnsongrass plant response rating", "setting": "[8]; Preemergence, scale 0 to 100", "value": 75}, {"measurement": "Bromegrass, Downy plant response rating", "setting": "[9]; postemergence, 0-100 scale", "value": 5}, {"measurement": "Plant response rating, Bromegrass, Downy", "setting": "[9]; [12]", "value": 10}, {"measurement": "Plant response rating, Bromegrass, Downy", "setting": "[9]; [17]", "value": 45}, {"measurement": "Plant response rating, Bromegrass, Downy", "setting": "[9]; [13]", "value": 80}, {"measurement": "Plant response rating, Bromegrass, Downy", "setting": "[9]; [14]", "value": 70}, {"measurement": "Plant response rating, Bromegrass, Downy", "setting": "[9]; [15]", "value": 85}, {"measurement": "Plant response rating, Bromegrass, Downy", "setting": "[9]; [16]", "value": 85}, {"measurement": "Bromegrass, Downy plant response rating", "setting": "[9]; Preemergence, scale 0 to 100", "value": 0}, {"measurement": "Velvetleaf plant response rating", "setting": "[10]; postemergence, 0-100 scale", "value": 0}, {"measurement": "Plant response rating, Velvetleaf", "setting": "[10]; [12]", "value": 0}, {"measurement": "Plant response rating, Velvetleaf", "setting": "[10]; [13]", "value": 0}, {"measurement": "Plant response rating, Velvetleaf", "setting": "[10]; [14]", "value": 0}, {"measurement": "Plant response rating, Velvetleaf", "setting": "[10]; [15]", "value": 0}, {"measurement": "Plant response rating, Velvetleaf", "setting": "[10]; [16]", "value": 0}, {"measurement": "Velvetleaf plant response rating", "setting": "[10]; Preemergence, scale 0 to 100", "value": 0}, {"measurement": "Pigweed plant response rating", "setting": "[11]; postemergence, 0-100 scale", "value": 0}, {"measurement": "Plant response rating, Pigweed", "setting": "[11]; [12]", "value": 0}, {"measurement": "Plant response rating, Pigweed", "setting": "[11]; [17]", "value": 0}, {"measurement": "Plant response rating, Pigweed", "setting": "[11]; [13]", "value": 0}, {"measurement": "Plant response rating, Pigweed", "setting": "[11]; [14]", "value": 0}, {"measurement": "Plant response rating, Pigweed", "setting": "[11]; [15]", "value": 0}, {"measurement": "Plant response rating, Pigweed", "setting": "[11]; [16]", "value": 0}, {"measurement": "Pigweed plant response rating", "setting": "[11]; Preemergence, scale 0 to 100", "value": 0}]}
